Legend:
[1] = tested on: electrocutaneous stimulation-induced facial pain in rats; test: Electrocutaneous stimulation-induced facial inflammatory pain model; assay type: in vivo, rat; settings: intranasal
Protocol: In humans electrocutaneous stimulation elicited vasodilatation in the cheek (Vassend and Knardahl, 2005). […] Baseline facial thermal thresholds of rats (Sprague-Dawley, male, 260-300 g) were assessed on the rats' depilated left cheek and then each rat received 1 hour of electrocutaneous facial stimulation using WPI ISOSTIM™ A320 (World Precision Instruments, 0.4 mA intensity, 10 ms duration, Is inter-pulse interval). 24 hr after stimulation (Day 1), each rat's thermal pain threshold mediated by A-delta fiber and C fiber were separately measured using a thermal nociception lamp (variable voltage regulator model: No. SC-3M) to evoke A-delta and C nerve fiber-mediated cheek withdrawal. […] Thermal thresholds were measured once every 0.5 hour for the first 3 hours post-I.N. dosing, and then 4, 5, and 6 hour post-I.N. dosing. Voltage regulator set to 90V for A-delta fiber testing and 45V for C fiber testing. Cutoff set at 6 seconds and 20 seconds for A-delta fiber and C fiber testing, respectively.

[2] = tested on: paw incision-induced postoperative pain in rats; test: Paw incision-induced postoperative pain model, mechanical pain threshold; assay type: in vivo, rat
Source text: A clinically applicable incision model in rodents is a hind-paw deep incision that produces a robust mechanical and cold allodynia, and thermal hyperalgesia (Pogatzki et al., 2003; Xu and Brennan, 2010). Male rats (Sprague-Dawley, 250-260 g, Harlan) used (n=8/group) were anesthetized with 2.5% isoflurane and the skin of the dorsolateral hindpaw surface were prepped by first depilitating it (using Nair), followed by rinsing and application of povidone-iodine. Afterwards, a 5 mm longitudinal incision was made near the hairy/glabrous border though the skin and subcutaneous fascia of the left hindpaw as described by (Pogatzki et al., 2003; Xu and Brennan, 2010). After briefly elevating the underlying muscle with curved forceps the wound is closed with a single nylon (8-0) mattress stitch.
Pre-surgery (baseline) and 24 hours after the surgery, the mechanical allodynia of the incision hindpaws of the rats were assessed using von Frey monofilaments with an up/down procedure (Chaplan et al., 1994). […] Mechanical pain thresholds were measured at 0.5, 1, 2, 3, 4, 5 and 6 hours post-intradermal injection.

[3] = tested on: UVB radiation-induced inflammatory pain in rat cheek; assay type: in vivo; settings: topical application 10 μM, 100 μL, 2% propylene glycol, UVB-irradiated cheek
[4] = intradermal injection 1 μM, 50 μL, 24 hours after incision
[5] = prevention: injection 1 μM, 50 μL just prior to closing of the wound

H-NFVPTNVGPFAF-NH2 [AFA-peptide 3, NH2-N-F-V-P-T-N-V-G-P-F-A-F-CONH2]
A-delta fiber-mediated pain withdrawal latencies vs vehicle (in words) ([1]; 1 μM): significantly prolonged | C-fiber-mediated pain withdrawal latencies vs vehicle (in words) ([1]; 1 μM): even more substantial and significantly prolonged | thermal pain thresholds in naïve, non-facial stimulation rats (in words) ([1]; data not shown): did not alter thermal pain thresholds | duration of action [2, 4]: around 6 hours | mechanical pain threshold (in words) [2, 4]: significantly increased | duration of action [2, 5]: 24 h | mechanical pain thresholds vs vehicle (in words) [2, 5]: significantly increased mechanical pain thresholds | onset of analgesic effect post treatment ([2]; prevention: injection just prior to closing of the wound, second timepoint assessed): 1 h | A-delta-fiber-mediated responses (in words) [3]: little effects

From US10287337B2 (priority 2015, dated 2019)
